Results published in US4012576A, “Antibiotic complex Bu 2183” (priority 1975, dated 1977).
≈ marks a conversion by molar mass, not a printed value. Entries after “also recorded” stand apart in the source; their conditions may differ.

What was measured:
Type in all cases: cell-based
[1] = test system: Gram-positive and Gram-negative bacteria; assay: In vitro antibacterial activity (general)
Description: (§1) The minimum inhibitory concentrations (MIC) of Bu-2183 A and B were determined against a wide variety of bacteria by the two-fold agar dilution method on Nutrient Agar plates. The inocula-replicating device of Steers et al. was used. Inoculum size was adjusted to be 10^4 dilution of overnight culture of the test organisms in Heart Infusion Broth (Difco). The results are shown in Table 6 along with those of kanamycin which was comparatively tested as a reference antibiotic.

Prov. stuartii A20894 = assay: MIC, two-fold agar dilution on Nutrient Agar; settings: Providencia stuartii, A20894
Description: as §1

Pr. mirabilis A9554 = assay: MIC, two-fold agar dilution on Nutrient Agar; settings: Proteus mirabilis, A9554
Description: as §1

Ps. aeruginosa A20653 = assay: MIC, two-fold agar dilution on Nutrient Agar; settings: Pseudomonas aeruginosa, A20653
Description: as §1

E. coli PO 1495 = assay: MIC, two-fold agar dilution on Nutrient Agar; settings: Escherichia coli, PO1495; Table 6, Ec-2; read-out: MIC
Description: as §1

[2] = test system: K. pneumoniae Type 22-3038; assay: MIC, two-fold agar dilution on Nutrient Agar; settings: Klebsiella pneumoniae, TYPE223038
Description: as §1

E. coli NIHJ = assay: MIC, two-fold agar dilution on Nutrient Agar; settings: Escherichia coli
Description: as §1

E. coli JR 35/C600 = assay: MIC, two-fold agar dilution on Nutrient Agar; settings: Escherichia coli, JR35/C600
Description: as §1

Ps. aeruginosa GN 315 = assay: MIC, two-fold agar dilution on Nutrient Agar; settings: Pseudomonas aeruginosa, GN315
Description: as §1

Ent. cloacae A21006 = assay: MIC, two-fold agar dilution on Nutrient Agar; settings: Enterobacter cloacae, A21006
Description: as §1

E. coli NR 79/W677 = assay: MIC, two-fold agar dilution on Nutrient Agar; settings: Escherichia coli, NR79/W677, Table 6, Ec-9
Description: as §1

E. coli A20107 = assay: MIC, two-fold agar dilution on Nutrient Agar; settings: Escherichia coli, A20107
Description: as §1

S. aureus D193 = assay: MIC, two-fold agar dilution on Nutrient Agar; settings: Staphylococcus aureus, D193
Description: as §1

Ps. aeruginosa A9930 = assay: MIC, two-fold agar dilution on Nutrient Agar; settings: Pseudomonas aeruginosa, A9930
Description: as §1

Pr. morganii A20031 = assay: MIC, two-fold agar dilution on Nutrient Agar; settings: Morganella morganii, A20031
Description: as §1

E. coli JR 66/W677 = assay: MIC, two-fold agar dilution on Nutrient Agar; settings: Escherichia coli, JR66/W677, Table 6, Ec-53
Description: as §1

S. aureus Smith = assay: MIC, two-fold agar dilution on Nutrient Agar; settings: Staphylococcus aureus
Description: as §1

E. coli ML 1630 = assay: MIC, two-fold agar dilution on Nutrient Agar; settings: Escherichia coli, ML1630
Description: as §1

E. coli A20895 = assay: MIC, two-fold agar dilution on Nutrient Agar; settings: Escherichia coli, A20895
Description: as §1

Ps. aeruginosa A20601 = assay: MIC, two-fold agar dilution on Nutrient Agar; settings: Pseudomonas aeruginosa, A20601
Description: as §1

Pr. vulgaris A9436 = assay: MIC, two-fold agar dilution on Nutrient Agar; settings: Proteus vulgaris, A9436
Description: as §1

Ps. aeruginosa A20896 = assay: MIC, two-fold agar dilution on Nutrient Agar; settings: Pseudomonas aeruginosa, A20896
Description: as §1

S. aureus D137 = assay: MIC, two-fold agar dilution on Nutrient Agar; settings: Staphylococcus aureus, D137
Description: as §1

S. aureus D133 = assay: MIC, two-fold agar dilution on Nutrient Agar; settings: Staphylococcus aureus, D133
Description: as §1

K. pneumoniae D11 = assay: MIC, two-fold agar dilution on Nutrient Agar; settings: Klebsiella pneumoniae, D11
Description: as §1

Ent. cloacae A20364 = assay: MIC, two-fold agar dilution on Nutrient Agar; settings: Enterobacter cloacae, A20364
Description: as §1

E. coli R 5 = assay: MIC, two-fold agar dilution on Nutrient Agar; settings: Escherichia coli, R5, Table 6, Ec-55
Description: as §1

E. coli A20732 = assay: MIC, two-fold agar dilution on Nutrient Agar; settings: Escherichia coli, A20732
Description: as §1

Ser. marcescens A20019 = assay: MIC, two-fold agar dilution on Nutrient Agar; settings: Serratia marcescens, A20019
Description: as §1

Ser. marcescens A21247 = assay: MIC, two-fold agar dilution on Nutrient Agar; settings: Serratia marcescens, A21247
Description: as §1

Ps. aeruginosa No. 130 = assay: MIC, two-fold agar dilution on Nutrient Agar; settings: Pseudomonas aeruginosa, NO.130
Description: as §1

Pseudomonas sp. A20621 = assay: MIC, two-fold agar dilution on Nutrient Agar; settings: Pseudomonas, SP.A20621
Description: as §1

S. aureus A20239 = assay: MIC, two-fold agar dilution on Nutrient Agar; settings: Staphylococcus aureus, A20239
Description: as §1

## NC[C@H](O)[C@@H](O[C@H]1O[C@H](CO)[C@@H](O)[C@H](O)[C@H]1O)[C@H](N)[C@H](O)CO [Bu-2183 C]
[1]
  bio-activity: bio-inactive; also recorded: bioinactive

## NC[C@H]1O[C@H](O[C@H]2[C@H](O)[C@@H](O[C@H]3O[C@H](CO)[C@@H](O)[C@H](N)[C@H]3O)[C@H](N)C[C@@H]2N)[C@H](O)[C@@H](O)[C@@H]1O [Kanamycin A, reference compound]
Prov. stuartii A20894
  MIC: 0.8 µg/mL (≈ 1.65 µM)
Pr. mirabilis A9554
  MIC: 0.4 µg/mL (≈ 0.826 µM)
Ps. aeruginosa A20653
  MIC: > 100 µg/mL
E. coli PO 1495
  MIC: 0.4 µg/mL (≈ 0.826 µM)
[2]
  MIC: 100 µg/mL (≈ 206 µM)
E. coli NIHJ
  MIC: 0.8 µg/mL (≈ 1.65 µM)
E. coli JR 35/C600
  MIC: 12.5 µg/mL (≈ 25.8 µM)
Ps. aeruginosa GN 315
  MIC: 100 µg/mL (≈ 206 µM)
Ent. cloacae A21006
  MIC: 50 µg/mL (≈ 103 µM)
E. coli NR 79/W677
  MIC: 25 µg/mL (≈ 51.6 µM)
E. coli A20107
  MIC: 25 µg/mL (≈ 51.6 µM)
S. aureus D193
  MIC: 0.4 µg/mL (≈ 0.826 µM)
Ps. aeruginosa A9930
  MIC: 6.3 µg/mL (≈ 13 µM)
Pr. morganii A20031
  MIC: 0.8 µg/mL (≈ 1.65 µM)
E. coli JR 66/W677
  MIC: 25 µg/mL (≈ 51.6 µM)
S. aureus Smith
  MIC: 0.2 µg/mL (≈ 0.413 µM)
E. coli ML 1630
  MIC: 100 µg/mL (≈ 206 µM)
E. coli A20895
  MIC: 0.8 µg/mL (≈ 1.65 µM)
Ps. aeruginosa A20601
  MIC: 12.5 µg/mL (≈ 25.8 µM)
Pr. vulgaris A9436
  MIC: 0.2 µg/mL (≈ 0.413 µM)
Ps. aeruginosa A20896
  MIC: > 100 µg/mL
S. aureus D137
  MIC: 1.6 µg/mL (≈ 3.3 µM)
S. aureus D133
  MIC: 0.8 µg/mL (≈ 1.65 µM)
K. pneumoniae D11
  MIC: 0.2 µg/mL (≈ 0.413 µM)
Ent. cloacae A20364
  MIC: 100 µg/mL (≈ 206 µM)
E. coli R 5
  MIC: 6.3 µg/mL (≈ 13 µM)
E. coli A20732
  MIC: 12.5 µg/mL (≈ 25.8 µM)
Ser. marcescens A20019
  MIC: 0.8 µg/mL (≈ 1.65 µM)
Ser. marcescens A21247
  MIC: > 100 µg/mL
Ps. aeruginosa No. 130
  MIC: 25 µg/mL (≈ 51.6 µM)
Pseudomonas sp. A20621
  MIC: 12.5 µg/mL (≈ 25.8 µM)
S. aureus A20239
  MIC: 25 µg/mL (≈ 51.6 µM)
